From patent US20250296942A1, “Phosphonate-Based Coordination Complexes and Methods of Preparation and Use Thereof” (University of Puerto Rico, priority 2021, published 2025)
Like-named read-outs stand apart in the source and are kept apart here.

How the values were obtained:
[1] = tested on: human breast cancer MDA-MB-231 cell line; assay: AlamarBlue cytotoxicity, RISE and nano-Ca@RISE, MDA-MB-231; type: cell-based; conditions: for viability at 35 µM / viability at 40 µM / viability at 45 µM / viability at 50 µM / IC50: Homo sapiens; for viability at 35 µM / viability at 40 µM / viability at 45 µM / viability at 50 µM: read-out: Relative cell viability (% RCL), MDA-MB-231
Experimental: Cell culture methods. The MDA-MB-231 cell line was incubated with DMEM, 1% Pen-Strep, and 10% FBS at 37° C. in 5% CO2. The hFOB 1.19 cell line was incubated with 1:1 DMEM:F-12, 0.3 mg/mL G418, and 10% FBS at 34° C. in 5% CO2. Cell passages were performed weekly at 80% of cell confluency, media was exchanged twice a week.
Cell treatments. Both cell lines were treated with RISE (control) and nano-Ca@RISE (experimental). […]. Both cell lines (MDA-MB-231 and hFOB 1.19) were seeded in 96 well plates at 2.5×10^5 cell/mL. The cells were incubated for 24 h at 37° C. (MDA-MB-231) and 34° C. (hFOB 1.19), respectively. After the initial incubation period, both cell lines were treated with 100 μL of the RISE solutions previously prepared, and incubation was performed for 24, 48, and 72 h at the respective incubation temperatures. For both cell lines, media (MDA-MB-231: DMEM, Pen-Strep) and (hFOB 1.19: DMEM, F-12, G418) were used with control groups. AlamarBlue® assay was utilized to determine cell proliferation, for this, 10% of AlamarBlue® solution in PBS was prepared. Finally, the media was removed from the 96 well plates, 100 μL of 10% AlamarBlue® solution was added, and the cells were incubated for 4 h at the same previously mentioned conditions. After the AlamarBlue® assay, the fluorescence (λexc=560 nm, λem=590 nm) was evaluated employing an Infinite M200 PRO Tecan Microplate Reader. […]. The nonlinear regression method using Graph Pad Prism 8 was applied to fit the dose-response curves (% cell live vs concentration) and determined the IC50 values for RISE.
[…]. Treatments at these concentrations were carried out at 24, 48, and 72 h for RISE and nano-Ca@RISE. The cell seeding and AlamarBlue® assay were completed as described above for the IC50 determination in both cell lines. […]. All experiments were performed in triplicates and the data was statistically treated using mean, standard deviation, and the coefficient of variation percentage (% CV).
Cell culture methods for the MDA-MB-231 cell line. This cell line was grown in Dulbecco's Modified Eagle's Medium (DMEM) supplemented with 10% fetal bovine serum (FBS) and 1% penicillin-streptomycin (Pen-Strep), incubated at 37° C. and 5% CO2. Cell passage and cell treatment were performed at 80% of cell confluency. The completed growth media was exchanged every two days.
Cell seeding. The MDA-MB-231 and hFOB 1.19 cell lines were seeded in 96 well plates at a density of 2.5×10^5 cells/mL, incubation was carried out for 24 h at 37° C. for MDA-MB-231 and 34° C. for osteoblast hFOB 1.19, in 5% CO2. The experiments were conducted in triplicates, three 96 well plates were made for each treatment period (24, 48, and 72 h).
Cell treatment. To determine the half-maximal inhibitory concentration (IC50), for both cell lines, two-fold serial dilutions of RISE (0-200 μM) were prepared. To assess the relative cell live (% RCL) were employed selected […] (50, 45, 40, and 35 μM) of RISE and nano-Ca@RISE for MDA-MB-231 and hFOB 1.19 cell lines. For this, after the seeding, 100 μL of RISE and nano-Ca@RISE were used to treat the cells. The control groups were treated with just media. Both cell lines were incubated for 24, 48, and 72 h after RISE and nano-Ca@RISE solutions were added.
AlamarBlue@assay. For both cell lines, after the 24, 48, and 72 h of treatment, the media was removed from the 96 well plates. Subsequently, 100 μL of 10% AlamarBlue® solution was added and incubation was carried out for 4 h. The fluorescence (λexc=570 nm, λem=590 nm) was measured employing an Infinite M200 PRO Tecan Microplate Reader. […]. The IC50 curves and the % RCL values were plotted using the Graph Pad Prism 8 program.

[2] = FaSSGF pH 1.60
[3] = tested on: human breast cancer MDA-MB-231 cell line; conditions: previously reported; cited from earlier work

Compound: O=P(O)(O)C(O)(Cc1cccnc1)P(=O)(O)O [RISE, Monosodium risedronate hemipentahydrate]
- viability at 35 µM ([1]; MDA-MB-231, 24 h, 35 μM, 24 h): 101 ± 2%
- viability at 40 µM ([1]; MDA-MB-231, 24 h, 40 μM, 24 h): 100 ± 2%
- viability at 45 µM ([1]; MDA-MB-231, 24 h, 24 h): 100 ± 2%
- viability at 50 µM ([1]; MDA-MB-231, 24 h, 24 h): 99 ± 2%
- viability at 35 µM ([1]; MDA-MB-231, 48 h, 35 μM, 48 h): 100 ± 2%
- viability at 40 µM ([1]; MDA-MB-231, 48 h, 40 μM, 48 h): 100 ± 3%
- viability at 45 µM ([1]; MDA-MB-231, 48 h, 48 h): 98 ± 2%
- viability at 50 µM ([1]; MDA-MB-231, 48 h, 48 h): 97 ± 3%
- viability at 35 µM ([1]; MDA-MB-231, 72 h, 35 μM, 72 h): ~100%
- viability at 40 µM ([1]; MDA-MB-231, 72 h, 40 μM, 72 h): 94 ± 1%
- viability at 45 µM ([1]; MDA-MB-231, 72 h, 72 h): 94 ± 2%
- viability at 50 µM ([1]; MDA-MB-231, 72 h, 72 h): 93 ± 2%
- IC50 ([1]; MDA-MB-231, 24 h): > 200 µM
- IC50 ([1]; MDA-MB-231, 48 h): 175 ± 3 µM
- IC50 ([1]; MDA-MB-231, 72 h): 98 ± 3 µM
- Relative cell viability (% RCL) ([1]; MDA-MB-231, 35 μM, 72 h): 96 ± 2%
- % RCL ([1]; MDA-MB-231, 40 μM, time not stated): ~100%
- time to reach maximum dissolution [2]: 1 min

Compound: N#Cc1ccc(C(c2ccc(C#N)cc2)n2cncn2)cc1 [LET, letrozole]
- IC50 [3]: > 200 µM
